The target in this assay is T1, α-glucosidase (Saccharomyces cerevisiae, UniProt P53341).
T1 construct: purchased Sigma Inc
Nature of the assay: α-glucosidase inhibition assay. The format is biochemical. Conditions: 50 mM phosphate buffer pH 6.8; 0.057 units enzyme; standard acarbose. As to the method:
The α-glucosidase activity was executed according to Fazal et al.. The following chemicals were used (concentrations): • 70 μL of 50 mM phosphate buffer (pH 6.8); • 10 μL (0.5 mM in methanol) test compounds; and • 10 μL (0.057 units, Sigma Inc.) of enzyme solution in buffer. For details on the experiment, kindly see Reference.

Structures are written as SMILES.

The term IC50 denotes the concentration that inhibits the measured activity by half. A higher IC50 goes with weaker potency.

T1 sequence (P53341 whole entry): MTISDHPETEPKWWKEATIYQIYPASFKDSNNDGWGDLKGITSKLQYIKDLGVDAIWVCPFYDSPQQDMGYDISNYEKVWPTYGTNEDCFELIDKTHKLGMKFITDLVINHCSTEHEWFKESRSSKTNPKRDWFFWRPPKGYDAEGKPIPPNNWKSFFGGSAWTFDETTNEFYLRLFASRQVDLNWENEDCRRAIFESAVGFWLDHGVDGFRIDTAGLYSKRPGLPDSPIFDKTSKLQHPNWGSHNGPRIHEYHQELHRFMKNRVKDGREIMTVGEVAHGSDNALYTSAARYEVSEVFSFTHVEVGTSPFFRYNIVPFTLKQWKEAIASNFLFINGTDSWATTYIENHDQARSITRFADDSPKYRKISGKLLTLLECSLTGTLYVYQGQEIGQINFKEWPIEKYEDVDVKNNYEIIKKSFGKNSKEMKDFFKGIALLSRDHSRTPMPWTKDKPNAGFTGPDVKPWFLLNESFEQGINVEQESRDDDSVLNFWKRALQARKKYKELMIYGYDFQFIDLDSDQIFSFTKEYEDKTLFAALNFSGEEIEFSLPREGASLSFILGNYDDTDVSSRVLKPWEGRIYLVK

Consider `O=[N+]([O-])c1cccc(C(CSc2nnc3c(n2)[nH]c2ccccc23)=NNC(=S)Nc2cccc(Cl)c2Cl)c1` [Compound 23, 2-(2-((5H-[1,2,4]triazino[5,6-b]indol-3-yl)thio)-1-(3-nitrophenyl)ethylidene)-N-(2,3-dichlorophenyl)hydrazine-1-carbothioamide], for which half-maximal inhibition (IC50) required 1.3 ± 0.01 µM. The compound `COc1ccc(C(CSc2nnc3c(n2)[nH]c2ccccc23)=NNC(=S)Nc2ccccc2)cc1` [Compound 25, 2-(2-((5H-[1,2,4]triazino[5,6-b]indol-3-yl)thio)-1-(4-methoxyphenyl)ethylidene)-N-phenylhydrazine-1-carbothioamide] yielded an IC50 of 9.3 ± 0.3 µM. For `COc1ccc(C(CSc2nnc3c(n2)[nH]c2ccccc23)=NNC(=S)Nc2ccc(F)cc2)cc1` [Compound 16, 2-(2-((5H-[1,2,4]triazino[5,6-b]indol-3-yl)thio)-1-(4-methoxyphenyl)ethylidene)-N-(4-fluorophenyl)hydrazine-1-carbothioamide] the value was 1.8 ± 0.2 µM; for `Cc1ccc(NC(=S)NN=C(CSc2nnc3c(n2)[nH]c2ccccc23)c2ccc(C)cc2)cc1` [Compound 8, 2-(2-((5H-[1,2,4]triazino[5,6-b]indol-3-yl)thio)-1-(p-tolyl)ethylidene)-N-(p-tolyl)hydrazine-1-carbothioamide], 17.5 ± 0.3 µM. The figure for `S=C(NN=C(CSc1nnc2c(n1)[nH]c1ccccc12)c1ccc(-c2ccccc2)cc1)Nc1ccc(Cl)c(Cl)c1` [Compound 19, 2-(2-((5H-[1,2,4]triazino[5,6-b]indol-3-yl)thio)-1-([1,1′-biphenyl]-4-yl)ethylidene)-N-(3,4-dichlorophenyl)hydrazine-1-carbothioamide] is 2.3 ± 0.05 µM; for `COc1ccc(C(CSc2nnc3c(n2)[nH]c2ccccc23)=NNC(=S)Nc2cccc(C)c2C)cc1` [Compound 22, 2-(2-((5H-[1,2,4]triazino[5,6-b]indol-3-yl)thio)-1-(4-methoxyphenyl)ethylidene)-N-(2,3-dimethylphenyl)hydrazine-1-carbothioamide] it is 5.9 ± 0.1 µM. The figure for `O=[N+]([O-])c1ccc(C(CSc2nnc3c(n2)[nH]c2ccccc23)=NNC(=S)Nc2ccccc2)cc1` [Compound 9, 2-(2-((5H-[1,2,4]triazino[5,6-b]indol-3-yl)thio)-1-(4-nitrophenyl)ethylidene)-N-phenylhydrazine-1-carbothioamide] is 6.8 ± 0.1 µM. For the compound `O=[N+]([O-])c1cccc(C(CSc2nnc3c(n2)[nH]c2ccccc23)=NNC(=S)Nc2ccccc2)c1` [Compound 17, 2-(2-((5H-[1,2,4]triazino[5,6-b]indol-3-yl)thio)-1-(3-nitrophenyl)ethylidene)-N-phenylhydrazine-1-carbothioamide], the concentration for half-maximal inhibition (IC50) was determined as 8.8 ± 0.2 µM.

In turn, `COc1ccc(C(CSc2nnc3c(n2)[nH]c2ccccc23)=NNC(=S)Nc2ccc(C)cc2)cc1` [Compound 5, 2-(2-((5H-[1,2,4]triazino[5,6-b]indol-3-yl)thio)-1-(4-methoxyphenyl)ethylidene)-N-(p-tolyl)hydrazine-1-carbothioamide] came in with a half-maximal inhibitory concentration (IC50) of 5.2 ± 0.3 µM. Compared with the last compound, the IC50 is about 1.7-fold lower. With `S=C(NN=C(CSc1nnc2c(n1)[nH]c1ccccc12)c1ccc(-c2ccccc2)cc1)Nc1ccccc1Br` [Compound 6, 2-(2-((5H-[1,2,4]triazino[5,6-b]indol-3-yl)thio)-1-([1,1′-biphenyl]-4-yl)ethylidene)-N-(2-bromophenyl)hydrazine-1-carbothioamide], half-maximal inhibition (IC50) was put at 25.3 ± 0.5 µM. `COc1ccc(C(CSc2nnc3c(n2)[nH]c2ccccc23)=NNC(=S)Nc2ccccc2Br)cc1` [Compound 10, 2-(2-((5H-[1,2,4]triazino[5,6-b]indol-3-yl)thio)-1-(4-methoxyphenyl)ethylidene)-N-(2-bromophenyl)hydrazine-1-carbothioamide] registered a half-maximal inhibitory concentration (IC50) of 35.8 ± 0.8 µM.

Compound `S=C(NN=C(CSc1nnc2c(n1)[nH]c1ccccc12)c1ccc(-c2ccccc2)cc1)Nc1cccc(Cl)c1Cl` [Compound 3, 2-(2-((5H-[1,2,4]triazino [5,6-b]indol-3-yl)thio)-1-([1,1′-biphenyl]-4-yl)ethylidene)-N-(2,3-dichlorophenyl)hydrazine-1-carbothioamide] returned a concentration for half-maximal inhibition (IC50) of 7.5 ± 0.2 µM. This IC50 lies about 4.8-fold lower than the previous one. The figure for `S=C(NN=C(CSc1nnc2c(n1)[nH]c1ccccc12)c1ccc(-c2ccccc2)cc1)Nc1ccccc1` [Compound 24, 2-(2-((5H-[1,2,4]triazino[5,6-b]indol-3-yl)thio)-1-([1,1′-biphenyl]-4-yl)ethylidene)-N-phenylhydrazine-1-carbothioamide] is 15.3 ± 0.3 µM; for `Cc1ccc(C(CSc2nnc3c(n2)[nH]c2ccccc23)=NNC(=S)Nc2c(C)cccc2C)cc1` [Compound 20, 2-(2-((5H-[1,2,4]triazino[5,6-b]indol-3-yl)thio)-1-(p-tolyl)ethylidene)-N-(2,6-dimethylphenyl)hydrazine-1-carbothioamide] it is 7.5 ± 0.2 µM. The compound `COc1ccc(C(CSc2nnc3c(n2)[nH]c2ccccc23)=NNC(=S)Nc2cccc(Cl)c2Cl)cc1` [Compound 1, 2-(2-((5H-[1,2,4]triazino [5,6-b]indol-3-yl)thio)-1-(4-methoxyphenyl)ethylidene)-N-(2,3-dichlorophenyl)hydrazine-1-carbothioamide] showed a concentration for half-maximal inhibition (IC50) of 1.3 ± 0.05 µM. Against the preceding compound, the IC50 is about 5.8-fold lower. In turn, `COc1ccc(C(CSc2nnc3c(n2)[nH]c2ccccc23)=NNC(=S)Nc2c(C)cccc2C)cc1` [Compound 15, 2-(2-((5H-[1,2,4]triazino[5,6-b]indol-3-yl)thio)-1-(4-methoxyphenyl)ethylidene)-N-(2,6-dimethylphenyl)hydrazine-1-carbothioamide] came in with an IC50 of 5.8 ± 0.2 µM. This IC50 lies about 4.5-fold higher than the previous one. The figure for `COc1ccc(C(CSc2nnc3c(n2)[nH]c2ccccc23)=NNC(=S)Nc2ccc([N+](=O)[O-])cc2)cc1` [Compound 2, 2-(2-((5H-[1,2,4]triazino [5,6-b]indol-3-yl)thio)-1-(4-methoxyphenyl)ethylidene)-N-(4-nitrophenyl)hydrazine-1-carbothioamide] is 2.6 ± 0.05 µM.

Take `Cc1cccc(C)c1NC(=S)NN=C(CSc1nnc2c(n1)[nH]c1ccccc12)c1ccc(-c2ccccc2)cc1` [Compound 13, 2-(2-((5H-[1,2,4]triazino[5,6-b]indol-3-yl)thio)-1-([1,1′-biphenyl]-4-yl)ethylidene)-N-(2,6-dimethylphenyl)hydrazine-1-carbothioamide]: 23.3 ± 0.5 µM corresponded to half-maximal inhibition (IC50). The figure for `Cc1ccc(NC(=S)NN=C(CSc2nnc3c(n2)[nH]c2ccccc23)c2ccc(-c3ccccc3)cc2)cc1` [Compound 4, 2-(2-((5H-[1,2,4]triazino[5,6-b]indol-3-yl)thio)-1-([1,1′-biphenyl]-4-yl)ethylidene)-N-(p-tolyl)hydrazine-1-carbothioamide] is 12.8 ± 0.3 µM; for `Cc1ccc(C(CSc2nnc3c(n2)[nH]c2ccccc23)=NNC(=S)Nc2ccc(Cl)c(Cl)c2)cc1` [Compound 21, 2-(2-((5H-[1,2,4]triazino[5,6-b]indol-3-yl)thio)-1-(p-tolyl)ethylidene)-N-(3,4-dichlorophenyl)hydrazine-1-carbothioamide] it is 4.8 ± 0.2 µM. The compound `Cc1ccc(NC(=S)NN=C(CSc2nnc3c(n2)[nH]c2ccccc23)c2cccc([N+](=O)[O-])c2)cc1` [Compound 12, 2-(2-((5H-[1,2,4]triazino[5,6-b]indol-3-yl)thio)-1-(3-nitrophenyl)ethylidene)-N-(p-tolyl)hydrazine-1-carbothioamide] yielded a half-inhibitory concentration (IC50) of 8.3 ± 0.2 µM. Regarding `Cc1ccc(C(CSc2nnc3c(n2)[nH]c2ccccc23)=NNC(=S)Nc2ccccc2Br)cc1` [Compound 7, 2-(2-((5H-[1,2,4]triazino[5,6-b]indol-3-yl)thio)-1-(p-tolyl)ethylidene)-N-(2-bromophenyl)hydrazine-1-carbothioamide], 33.3 ± 0.6 µM corresponded to half-maximal inhibition (IC50). Compound `O=[N+]([O-])c1cccc(C(CSc2nnc3c(n2)[nH]c2ccccc23)=NNC(=S)Nc2ccccc2Br)c1` [Compound 11, 2-(2-((5H-[1,2,4]triazino[5,6-b]indol-3-yl)thio)-1-(3-nitrophenyl)ethylidene)-N-(2-bromophenyl)hydrazine-1-carbothioamide] yielded an IC50 of 26.8 ± 0.7 µM. For `Cc1cccc(C)c1NC(=S)NN=C(CSc1nnc2c(n1)[nH]c1ccccc12)c1cccc([N+](=O)[O-])c1` [Compound 14, 2-(2-((5H-[1,2,4]triazino[5,6-b]indol-3-yl)thio)-1-(3-nitrophenyl)ethylidene)-N-(2,6-dimethylphenyl)hydrazine-1-carbothioamide] the value was 7.5 ± 0.2 µM; for `COc1ccc(C(CSc2nnc3c(n2)[nH]c2ccccc23)=NNC(=S)Nc2ccc(Cl)c(Cl)c2)cc1` [Compound 18, 2-(2-((5H-[1,2,4]triazino[5,6-b]indol-3-yl)thio)-1-(4-methoxyphenyl)ethylidene)-N-(3,4-dichlorophenyl)hydrazine-1-carbothioamide], 2.3 ± 0.05 µM.

Source of the values: publication PMC6864627, “Synthesis of Novel Triazinoindole-Based Thiourea Hybrid: A Study on α-Glucosidase Inhibitors and Their Molecular Docking” (Molecules, 2019).
